Bridge positions count the residues as written; N and C are the ends. Square brackets hold non-standard residues; d marks the D form. Ends that are not written are not given here. I, II: the chains in the order shown. * marks the point of attachment. StBu = CC(C)(C)S*
What was measured:
[1] = system: Pseudomonas aeruginosa; test: Mutant library in vitro inhibition activity, Pseudomonas aeruginosa; assay type: cell-based; details: relative growth after 18 hours of co-incubation
Method: (§1) A library of 340 mutants of original lytic peptide (killing domain in synbody) was synthesized with single amino acid substitutions. Mutants along with original peptide as positive control were tested in vitro for inhibition activity against S. aureus and Pseudomonas aeruginosa. […] Ratio reflect the improvement in activity as “Mutant[Relative growth]/Orignal[Relative growth].

[2] = system: S. mutans; assay type: cell-based
[3] = system: P. aeruginosa; assay type: cell-based
[4] = system: S. aureus; assay type: cell-based
[5] = system: B. subtilis; assay type: cell-based
[6] = system: Staphylococcus aureus; test: Mutant library in vitro inhibition activity, S. aureus; assay type: cell-based; details: relative growth after 18 hours of co-incubation
Method: as §1

[7] = In vivo characterization: immune response and acute toxicity in mice; parameters: species or system CD1 mice
Description: FIG. 3. Graph of immune response cytoxicity data of a composition of the invention in CD1 mice.
(§2) GAL80 synbody was used as a negative control with no activity against S. aureus. […] Synbody was abbreviated as “SB”.

[8] = system: human cells; assay type: cell-based
Description: FIG. 2. Graph of cytoxicity data of a composition of the invention in human tissue culture studies.
as §2

[9] = system: S. aureus; test: Solution inhibition assay, S. aureus; assay type: cell-based; details: negative control synbody
Method: The advantage of the synbody “DR-RW” over the single peptides can be noticed in the range 10-25 uM.

Substance | ratio, Mutant[Relative growth]/Orignal[Relative growth] [1] | ratio, Mutant[Relative growth]/Orignal[Relative growth] [6] | other results
RWRRHLHFKRPHRKHKR [Mut 111] | 1.71 | – | –
DRIFHKMQHKPYKIKKRGSC | – | – | Avg MIC ± SD, SM [2]: >100 µM; Avg MIC ± SD, PA [3]: >100 µM
RWRRHKAFKRPHRKHKR [Mut 121] | 2.297 | – | –
RWRRHKHFKRPHRKHKRGSC | – | – | Avg MIC ± SD, SM [2]: >100 µM; Avg MIC ± SD, SA [4]: 28 ± 1.5 µM; Avg MIC ± SD, PA [3]: 27 ± 2.3 µM; Avg MIC ± SD, BS [5]: 20 ± 0.3 µM
RWRRHKHFKRPHRKHKK [Mut 332] | – | 2.438 | –
RRRRHKHFKRPHRKHKR [Mut 22] | 2.073 | 6.1 | –
RWRRHKHFKRRHRKHKR [Mut 202] | 1.3565 | – | –
RWRRHRHFKRPHRKHKR [Mut 102] | 1.077 | – | –
RWRRHKVFKRPHRKHKR [Mut 140] | – | 1.658 | –
RWRRHKHKKRPHRKHKR [Mut 152] | – | 2.049 | –
RWRRHKHFKRPHRKTKR [Mut 297] | – | 2.339 | –
RWRRHKd-KFKRPHRKHKR (RWRRHK[dK]FKRPHRKHKR) [Mut 125] | – | 1.593 | –
RWRRHHHFKRPHRKHKR [Mut 109] | 1.395 | – | –
RWRRHFHFKRPHRKHKR [Mut 114] | 10.95 | – | –
RWRRPKHFKRPHRKHKR [Mut 95] | – | 9.077 | –
FWRRHKHFKRPHRKHKR [Mut 14] | – | 1.653 | –
RWRRMKHFKRPHRKHKR [Mut 93] | 1.035 | – | –
RWRRHKRFKRPHRKHKR [Mut 122] | 3.121 | 17.45 | –
RWRRHVHFKRPHRKHKR [Mut 120] | 3.684 | – | –
RWRRHKHFKRFHRKHKR [Mut 214] | 1.134 | – | –
RWRFHKHFKRPHRKHKR [Mut 74] | 1.017 | – | –
RWRRHKHPKRPHRKHKR [Mut 155] | – | 2.359 | –
RWRRFKHFKRPHRKHKR [Mut 94] | 1.211 | – | –

Substance | ratio, Mutant[Relative growth]/Orignal[Relative growth] [1] | ratio, Mutant[Relative growth]/Orignal[Relative growth] [6] | other results
LWRRHKHFKRPHRKHKR [Mut 11] | – | 1.58 | –
RWRRHKHFKRPHRKHKF [Mut 334] | – | 2.37 | –
RWRRHKHFKRMHRKHKR [Mut 213] | 1.185 | – | –
RWRRHKYFKRPHRKHKR [Mut 139] | 1.164 | 2.136 | –
RWRRHKHFKRDHRKHKR [Mut 204] | 2.107 | – | –
RWRRNKHFKRPHRKHKR [Mut 83] | – | 13.15 | –
RWRRIKHFKRPHRKHKR [Mut 90] | – | 1.747 | –
RWRRHGHFKRPHRKHKR [Mut 108] | 1.191 | – | –
PWRRHKHFKRPHRKHKR [Mut 15] | – | 1.658 | –
RWRRHKHFKRPYRKHKR [Mut 239] | – | 2.12 | –
RWRRHKWFKRPHRKHKR [Mut 138] | 1.315 | – | –
I: DRIFHKMQHKPYKIKKRGSGGGKC(StBu)-NH2 / II: RWRRHKHFKRPHRKHKRGSG (amide I:23-II:C) [Synbody] | – | – | Avg MIC ± SD, SM [2]: >100 µM; Avg MIC ± SD, SA [4]: 14 ± 0.8 µM; Acute toxicity ([7]; 500 ug dose): no immune response or acute toxicity; Immune response ([7]; 500 ug dose, FIG. 3): no immune response; Level of IgG, PBS versus synbody injected mice ([7]; FIG. 3): no difference detected; Avg MIC ± SD, PA [3]: 22 ± 1.8 µM; Cytotoxic activity [8]: no cytotoxic activity; Avg MIC ± SD, BS [5]: 14 ± 1.1 µM
RWRRHKHLKRPHRKHKR [Mut 151] | – | 1.312 | –
GAL80 synbody: synbody used as a negative control with no activity against S. aureus (peptide 1 GTEKGTSGWLKTGSC; peptide 2 EGEWTEGKLSLRGSC) | – | – | Activity against S. aureus [9]: no activity
RWRRHKHMKRPHRKHKR [Mut 153] | – | 2.293 | –
RLRRHKHFKRPHRKHKR [Mut 31] | – | 1.633 | –
RWRRHIHFKRPHRKHKR [Mut 110] | 4.387 | – | –
d-KWRRHKHFKRPHRKHKR ([dK]WRRHKHFKRPHRKHKR; not fully specified (some residues)) [Mut 5] | – | 1.308 | –
RWRRHKHFKRPHRKHFR [Mut 314] | – | 1.497 | –
RWRRAKHFKRPHRKHKR [Mut 81] | – | 1.525 | –
RWRRHKHFKRPHRKVKR [Mut 300] | – | 1.453 | –
RWRRWKHFKRPHRKHKR [Mut 98] | 1.183 | – | –
RWRRHKHFRRPHRKHKR [Mut 162] | – | 2.125 | –
